# Values quoted from earlier work in US20160106679A1, “TABLET WITH INCREASED DRUG LOAD OF ODANACATIB” (SANDOZ AG, priority 2013, published 2016).
# Read-outs that look alike come from different tables or passages of the source.
# Key:
# [1] = highly crystalline odanacatib
structure (smiles),measurement,setting,value
"CC(C)(F)C[C@H](N[C@@H](c1ccc(-c2ccc(S(C)(=O)=O)cc2)cc1)C(F)(F)F)C(=O)NC1(C#N)CC1 [Odanacatib, odanacatib]",aqueous solubility,[1],low
same,"BMD change at lumbar spine, hip and femoral neck",patients; patients treated once weekly with 20-50 mg,"increases in lumbar spine, hip and femoral neck BMD"
same,"BMD change at lumbar spine, hip and femoral neck",patients; patients treated with low doses,decreases in BMD at the same sites
